Data set [1] has as its system PepT1. Briefly: Effective permeability in Sprague-Dawley rat single-pass intestinal perfusion model assessed as PepT1-mediated drug transport at 0.1 mM administered in MES buffer at pH 6 via PVC tubing after 20 to 120 mins by HPLC analysis in presence of Gly-Sar. To be noted: other: intestinal perfusion via PVC tubing, pH 6, with Gly-Sar (concentration not stated), read-out: Peff. In kind it is ADME, organism-based.

Data set [2] relates to PepT1. In words: Effective permeability in Sprague-Dawley rat single-pass intestinal perfusion model assessed as PepT1-mediated drug transport at 0.1 mM administered in MES buffer at pH 6 via PVC tubing after 20 to 120 mins by HPLC analysis. In kind it is ADME, organism-based. As to conditions: other: intestinal perfusion via PVC tubing, read-out: Peff.
Data set [3] deals with PepT1. Briefly: Effective permeability in Sprague-Dawley rat single-pass intestinal perfusion model assessed as PepT1-mediated drug transport at 0.1 mM administered in HEPES buffer at pH 7.4 via PVC tubing after 20 to 120 mins by HPLC analysis. In kind it is ADME, organism-based. To be noted: other: intestinal perfusion via PVC tubing, read-out: Peff.
Data set [4] can be described thus: Chemical stability in HEPES buffer assessed as compound remaining at 37 degC up to 2 hrs by HPLC analysis. It is filed as physicochemical. To be noted: read-out: Stability.
The nature of data set [5]: Chemical stability in MES buffer assessed as compound remaining at 37 degC up to 2 hrs by HPLC analysis. To be noted: read-out: Stability. It is filed as physicochemical.
The nature of data set [6]: Aqueous equilibrium solubility of the compound after 24 hrs by HPLC analysis. In kind it is physicochemical. To be noted: water (aqueous).
Data set [7] is described as follows: Induction of nitric oxide release in PBS at 100 uM at pH 7.4 after 24 hrs by Griess method in presence of rat serum. To be noted: pH 7.4, 24 h. (In general: The Griess reaction detects nitrite, a stable product of nitric oxide.)
The nature of data set [8]: Induction of nitric oxide release in PBS at 100 uM at pH 7.4 after 24 hrs by Griess method. To be noted: buffer, pH 7.4, 24 h.
Data set [9] in a line: Cytotoxicity against human LO2 cells assessed as cell survival at 50 uM after 48 hrs by CCK-8 assay relative to control. It is filed as cell-based, L02. To be noted: read-out: Survival. (In general: Tetrazolium dyes change colour on reduction, which living cells bring about.)
Data set [10] relates to HepG2. In words: Cytotoxicity against human HepG2 cells after 48 hrs by CCK-8 assay. As to conditions: HepG2, 48 h. In kind it is functional, cell-based.
Data set [11] concerns MCF7. Briefly: Cytotoxicity against human MCF7 cells after 48 hrs by CCK-8 assay. In kind it is functional, cell-based. To be noted: MCF7, 48 h.
Data set [12] deals with A549. Briefly: Cytotoxicity against human A549 cells after 48 hrs by CCK-8 assay. To be noted: A549, 48 h. In kind it is functional, cell-based.
Data set [13] deals with HCT-116. Briefly: Cytotoxicity against human HCT116 cells after 48 hrs by CCK-8 assay. It is filed as functional, cell-based. To be noted: HCT-116, 48 h.
Data set [14] has as its system A549. Briefly: Ratio of cisplatin IC50 to compound IC50 for human A549 cells. In kind it is functional.
A short description of data set [15]: Cytotoxicity against human LO2 cells at 0.02 to 10 uM after 48 hrs by CCK-8 assay. In kind it is cell-based. To be noted: l02, 48 h.
The subject of data set [16] is L02. In words: Induction of human LO2 cell growth at 0.02 to 10 uM after 48 hrs by CCK-8 assay. In kind it is functional, cell-based.

The structures appear in SMILES notation. Values after ≈ are worked out from the molar mass of the structure shown. Active and inactive are the calls of the source. The calls are words filed in the database; no cut-off is given here.

Consider `CC(C)[C@H](N)C(=O)OCCOC(=O)[C@]12CCC(C)(C)C[C@H]1C1=CC[C@@H]3[C@@]4(C)CC[C@H](OC(=O)CO[N+](=O)[O-])C(C)(C)[C@@H]4CC[C@@]3(C)[C@]1(C)CC2.Cl`, for which the values for the Papp at 100 µM in [1], in data set [2] and in [3] were 25.3 ×10⁻⁶ cm/s, 33.2 ×10⁻⁶ cm/s and 20.3 ×10⁻⁶ cm/s, respectively. For the same compound, the remaining at 2 h in data set [4] was determined as 98.5%; in [5], 100%. In addition, the thermodynamic solubility – broadly, the concentration in solution at equilibrium with solid – at 24 h in data set [6] was 18.6 µg/mL. Besides, the Activity entry in data set [7] was “Active”; in data set [8], 6.7%; in data set [15], “Non-toxic”. In addition, the viability at 48 h, 50 µM in data set [9] worked out at 60%. In addition, the IC50 (in general, the midpoint of a concentration-inhibition curve) in data set [10] is 10.7 µM; in [11], 25.5 µM; in data set [12], 7.5 µM; in data set [13], 24.9 µM. In addition, in data set [14], the “Ratio IC50” value is recorded as 2. The result in [16] was Active.
In the case of `CC[C@H](C)[C@H](N)C(=O)OCCOC(=O)[C@]12CCC(C)(C)C[C@H]1C1=CC[C@@H]3[C@@]4(C)CC[C@H](OC(=O)CO[N+](=O)[O-])C(C)(C)[C@@H]4CC[C@@]3(C)[C@]1(C)CC2`, the IC50 is 16.3 µM in data set [10], 74 µM in data set [11], 17.7 µM in [12] and over 150 µM in data set [13].
For `C[C@H](N)C(=O)OCCOC(=O)[C@]12CCC(C)(C)C[C@H]1C1=CC[C@@H]3[C@@]4(C)CC[C@H](OC(=O)CO[N+](=O)[O-])C(C)(C)[C@@H]4CC[C@@]3(C)[C@]1(C)CC2` the same measures were 23.2 µM, 48 µM, 28.1 µM and 32.8 µM.
`CC(C)[C@H](N)C(=O)N[C@H](C(=O)OCCOC(=O)[C@]12CCC(C)(C)C[C@H]1C1=CC[C@@H]3[C@@]4(C)CC[C@H](OC(=O)CO[N+](=O)[O-])C(C)(C)[C@@H]4CC[C@@]3(C)[C@]1(C)CC2)C(C)C.Cl`: the results for the Papp at 100 µM in data set [1], in [2] and in data set [3] were 16.3 ×10⁻⁶ cm/s, 46 ×10⁻⁶ cm/s and 23.4 ×10⁻⁶ cm/s, respectively. The values for the remaining at 2 h in data set [4] and in data set [5] were 98.2% and 100%, respectively. In [6], this compound returned a solubility (thermodynamic) at 24 h of 22.3 µg/mL. Also, the results for the Activity result in data set [7], in [8] and in data set [15] were “Active”, 9.9% and “Non-toxic”, respectively. Further, the viability at 48 h, 50 µM in data set [9] turned out to be 60%. For the same compound, the IC50 in [10] is 2.8 µM; in data set [11] it was 15 µM; in data set [12], 2.4 µM; in data set [13], 15.5 µM. Also, the “Ratio IC50” value in data set [14] was found to be 7. Further, the result in data set [16] was Active.
For the compound `CC(C)[C@H](NC(=O)[C@H](C)N)C(=O)OCCOC(=O)[C@]12CCC(C)(C)C[C@H]1C1=CC[C@@H]3[C@@]4(C)CC[C@H](OC(=O)CO[N+](=O)[O-])C(C)(C)[C@@H]4CC[C@@]3(C)[C@]1(C)CC2`, the IC50 in [10] was 22.1 µM; in data set [11], 83.2 µM; in [12], 9.6 µM; in [13] it was 24.7 µM.
For `CC(C)[C@H](N)C(=O)OCCOC(=O)[C@]12CCC(C)(C)C[C@H]1C1=CC[C@@H]3[C@@]4(C)CC[C@H](O)C(C)(C)[C@@H]4CC[C@@]3(C)[C@]1(C)CC2.Cl`, the Papp at 100 µM in data set [3] worked out at 41.5 ×10⁻⁶ cm/s. The compound further displayed a thermodynamic solubility at 24 h in [6] of 25.2 µg/mL. For the same compound, the IC50 in [10] is 96.7 µM; in data set [11], over 150 µM; in data set [12], 68.1 µM; in data set [13], over 150 µM.
As for `CC(COC(=O)[C@]12CCC(C)(C)C[C@H]1C1=CC[C@@H]3[C@@]4(C)CC[C@H](O)C(C)(C)[C@@H]4CC[C@@]3(C)[C@]1(C)CC2)OC(=O)[C@@H](NC(=O)[C@@H](N)C(C)C)C(C)C` (stereo partly drawn), the IC50 in data set [10] is 73.1 µM; in data set [11], over 150 µM; in data set [12], 64.3 µM; in data set [13], 133 µM.
For `CC1(C)CC[C@]2(C(=O)O)CC[C@]3(C)C(=CC[C@@H]4[C@@]5(C)CC[C@H](O)C(C)(C)[C@@H]5CC[C@]43C)[C@@H]2C1` [OLEANOLIC_ACID], the values for the Papp at 100 µM in data set [2] and in [3] were 31.6 ×10⁻⁶ cm/s and 31.7 ×10⁻⁶ cm/s, respectively. This compound yielded a solubility (thermodynamic) at 24 h in data set [6] of 0.012 µg/mL (≈ 0.0263 µM). For the same compound, the IC50 is 51.4 µM in data set [10], over 150 µM in [11], 81.4 µM in data set [12] and over 150 µM in data set [13]. Also, the Activity entry in [15] was “Non-toxic”. In addition, the result in data set [16] was Active.
